Paper PMC5990611, “An in Vitro Assay of hERG K^+ Channel Potency for a New EGFR Inhibitor FHND004” (Frontiers in Pharmacology, 2018)

Assay: In vivo pharmacokinetic assay in male SD rats
Details: rat, serum, data not shown, read-out: maximum serum concentration (Cmax)

## C=CC(=O)Nc1cc(Nc2nccc(-c3cn(C)c4ccccc34)n2)c(OC)cc1N(C)CCN(C)C [AZD9291]
  Cmax: 220 nM
